{"source": "paper PMC7505949", "about": "“Structure-Guided Designing and Evaluation of Peptides Targeting Bacterial Transcription” (Frontiers in Bioengineering and Biotechnology, 2020)", "key": {"[1]": {"test": "Solubility in water and aqueous buffer", "format": "physicochemical", "description": "(§1) As the interaction interface between RNAP β1β2 domain and the transcription factor (CarD^NTD and TRCF-RID) ([Westblade et al., 2010]; [Gulten and Sacchettini, 2013]) is relatively large, flat, solvent-exposed, and devoid of the binding pocket, it is challenging to design small molecule-based inhibitors. We therefore aimed to design the peptide-based RNAP β/transcription factor inhibitors by selecting the key residues involved in the interaction at the conserved PPI interface between RNAP β and transcription factor complex. The sequence and molecular weight of the designed peptides are mentioned in Table 1. PEP-FOLD3.1 ([Lamiable et al., 2016]), an online server, was used to predict the de novo structures of the designed peptides by running 100 simulations for each peptide. PEP-FOLD3.1 provides the information in the form of models which are generated by OPEP (Optimized Potential for Efficient structure Prediction) energy. The topmost model with the lowest OPEP score having minimum energy and maximum stability for each peptide was selected for further computational analysis. The designed peptides were 7–8 amino acids in length and were commercially synthesized. The peptides were analyzed for their stability and solubility. All the peptides were soluble in water as well as in aqueous buffer with a solubility of > 10 mM."}, "[2]": {"test": "Storage stability in water by LC-MS", "format": "physicochemical", "details": "stored for over a year at 4°C, LC-MS (C18), observed vs calculated molecular weight", "method": "The stability of all the designed peptides was analyzed using Liquid chromatography-mass spectrometry (LC-MS) using Agilent Technologies (model G6550A). […] Peptide 3 was injected in the C18 column equilibrated in a positive mode at a flow rate of 0.5 mL/min using water as a mobile phase.\nas §1, with “The topmost model with the lowest OPEP score having minimum energy and maximum stability for each peptide was selected for further computational analysis. The designed peptides were 7–8 amino acids in length and were commercially synthesized.” left out, “All the peptides were soluble in water as well as in aqueous buffer with a solubility of > 10 mM.” left out"}}, "note": "Peptide text beside a SMILES is read from it."}
{"smiles": "CC[C@H](C)[C@H](NC(=O)[C@H](CCC(=O)O)NC(=O)CNC(=O)[C@@H](N)[C@@H](C)O)C(=O)N[C@@H](CCCCN)C(=O)N[C@@H](CO)C(=O)N[C@@H](CCC(N)=O)C(=O)N[C@H](C(=O)O)[C@@H](C)O", "note": "[Peptide 2] (H-TGEIKSQT-OH)", "values": [{"measurement": "Solubility (in words)", "setting": "[1]", "value": "soluble in aqueous buffer"}, {"measurement": "Stability on storage", "setting": "[2]", "value": "highly stable"}]}
